Results taken from patent publication US11963519B2 (priority 2022, dated 2024).
Several values for one entry are separate records, joined by “and”; a condition that tells them apart may be missing. Equal entries are not always repeated.

Assays:
[1] = tested on: CD-1 mice; assay type: in vivo, mouse
[2] = tested on: CD-1 mice; assay type: in vivo, mouse; remark: listed apart in the source
[3] = tested on: CD-1 mice; settings: mouse, in vivo

## CN(C)CCCN1c2ccccc2CCc2ccccc21 [IMI, imipramine]
[1]; mouse, in vivo
  exploratory behaviors in open-field test of BCG+PTX model mice: increased
  exploratory behaviors in open-field test of depression model mice: decreased
  number of times of zone crossing in open-field test of BCG+PTX model mice: increased
  number of times of zone crossing in open-field test of depression model mice: decreased
  total movement distance in open-field test of BCG+PTX model mice: increased
  total movement distance in open-field test of depression model mice: decreased
[2]; mouse, in vivo
  motionlessness time (behavioral despair state) in TST of BCG+PTX model mice: improved
[3]
  sucrose preference rate in depression model mice: significantly reduce

## Bacille Calmette-Guerin [BCG]
[1]; n=12
  Open-field test Number of times of exploratory behaviors: 23.83 ± 12.41 and 38.92 ± 15.96
  Open-field test Number of times of zone crossing: 104.91 ± 35.1528 and 138.73 ± 23.44
  Open-field test Total movement distance: 582.74 ± 211.42 cm and 734.20 ± 349.87 cm
[2]; n=12
  TST Motionlessness time: 122.60 ± 34.11 s and 98.84 ± 21.35 s
